Holding throughout (assay): relative viability (nuclei count vs DMSO), 5 days (fraction); higher = more cells survive
Compound in test [1]: NCC(=O)Nc1ccc(-n2nc(C(F)(F)F)cc2-c2ccc3c(ccc4ccccc43)c2)cc1 + C[C@@H](Oc1cc(-c2cnn(C3CCNCC3)c2)cnc1N)c1c(Cl)ccc(F)c1Cl [Crizotinib] (partner 1 µM)
In a few lines:
(§1)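 Medians of duplicate plates are given as relative viability. That measure is the nuclei count in treated wells divided by the count in vehicle wells. Counts were taken on 4× images of lung cancer cell lines in 1536-well plates, 5 days after pin-tool dosing the day after seeding with one drug alone or a fixed anchor-drug dose plus five library-drug doses (not always all listed) in √10 steps.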

Compound in test [2]: C1CSC2=C(C(=O)N1)SC3=C2C=C(C=C3)O [kb NB 142-70] + CC1(C)CCC(c2ccc(Cl)cc2)=C(CN2CCN(c3ccc(C(=O)NS(=O)(=O)c4ccc(N[C@H](CCN5CCOCC5)CSc5ccccc5)c(S(=O)(=O)C(F)(F)F)c4)cc3)CC2)C1 [Navitoclax] (partner 0.5 µM)
In a few lines: as §1

Compound in test [3]: NCC(=O)Nc1ccc(-n2nc(C(F)(F)F)cc2-c2ccc3c(ccc4ccccc43)c2)cc1 + C[C@]1(O)C[C@@H](c2nc(-c3ccc4ccc(-c5ccccc5)nc4c3)c3c(N)nccn32)C1 [Linsitinib] (partner 1 µM)
The method in brief: as §1

Compound in the test “kb NB 142-70 + OSI-027”: C1CSC2=C(C(=O)N1)SC3=C2C=C(C=C3)O [kb NB 142-70] + COc1cccc2cc(-c3nc([C@H]4CC[C@H](C(=O)O)CC4)n4ncnc(N)c34)[nH]c12 [OSI-027] (partner 0.5 µM)
The method in brief: as §1

On to UMC-11, for which the relative viability in test [1] (first compound 0.02 µM) is 0.728; in test [1] (first compound 0.06325 µM) it was 0.638; in test [1] (first compound 0.2 µM) it was 0.622; in test [1] (first compound 0.6325 µM) it was 0.604; in test [1] (first compound 2 µM) it was 0.567; in test [2] (first compound 0.1 µM) it was 0.293. Besides, the relative viability in test [2] (first compound 1 µM) came to 0.267; in test [2] (first compound 3.162 µM), 0.184; in test [3] (first compound 0.02 µM), 0.995; in test [3] (first compound 0.06325 µM), 1.03; in test [3] (first compound 0.2 µM), 1.16; in test [3] (first compound 0.6325 µM), 0.966. Also, the relative viability in test [3] (first compound 2 µM) stood at 0.918; with kb NB 142-70 + OSI-027 (first compound 0.1 µM) it was 0.463; with kb NB 142-70 + OSI-027 (first compound 1 µM) it was 0.468; with kb NB 142-70 + OSI-027 (first compound 3.162 µM), 0.298.

(Values after the supplement of paper PMC10307832.)
